One series has as its system HeLa cells. The series is described as follows: Survival Enhancement Ratio (clonogenic survival assay after 2 Gray irradiation). The class given is cell-based. The settings on record: inhibitor 100 nM.
A further series concerns cells. The settings on record: cited from earlier work.
Another series addresses PI 3-kinase. The settings on record: stated to be the same as for DNA-PK; cited from earlier work.
The next series addresses DNA-PK (Homo sapiens, UniProt P78527). The settings on record: read-out: IC50 towards DNA-PK; cited from earlier work.

The text below walks through data of US20070238731A1, “Dna-Pk Inhibitors” (KUDOS PHARMACEUTICALS LIMITED, priority 2004, published 2007).

Protocol for HeLa cells: Gray irradiation was calculated from the formula: [formula] The degree of cell killing was monitored by a standard clonogenic survival assay. […] Four hours later, compound or vehicle control was added to the cells. […] The cells were then incubated for a further 16 hours before the media was replaced with fresh media in the absence of DNA-PK inhibitor. After 8 days, colonies formed were fixed and stained with Giemsa (Sigma, Poole, UK) and scored using an automated colony counter (Oxford Optronics Ltd, Oxford, UK). The data was calculated as described above.

`O=C(CCNCC1CCCO1)Nc1ccc(-c2cccc3c(=O)cc(N4CCOCC4)oc23)c2sc3ccccc3c12` (centres unmarked) [Compound 53]: the melting point amounted to 148 °C.
As for `O=c1cc(N2CCOCC2)oc2c(-c3cccc4c3sc3ccccc34)cccc12`, in the series with HeLa cells, the “Survival Enhancement Ratio (SER)” value was found to be 1.3.
Take `O=c1cc(N2CCOCC2)oc2c(-c3ccccc3)cccc12` [LY294002]: the “sensitisation of cells to the effects of IR” value in the series on cells was “weakly sensitise cells to the effects of IR”. Moreover, the IC50 on PI 3-kinase and at DNA-PK was approximately 1000 nM throughout.

The melting point is the temperature, or range, at which the solid turns liquid. A word on the IC50: it is the midpoint of a concentration-inhibition curve.
